≈ marks a conversion by molar mass, not a printed value. Read-outs that look alike come from different tables or passages of the source. Values belong to the molecule of their own block, whether it stands above or below them.
Experiments:
[1] = test system: Leishmania donovani strain 1S-CL2D axenic amastigotes; assay: Leishmania donovani axenic amastigote in vitro drug sensitivity assay (resazurin); format: cell-based; details: for Selectivity Index (Ld/L929): L. donovani vs L929; for IC50: Leishmania donovani, 72 hrs incubation
Method: All experiments were conducted with the axenic amastigote-form of the following parasite: Leishmania donovani strain 1S-CL2D from Sudan, World Health Organization (WHO) designation: (MHOM/SD/62/1 S-CL2D). Parasites were cultured in T-25 vented cap flasks and kept in humidified incubators at 37° C. and 5% CO2. The axenic parasite culture media was RPMI-1640/MES/pH 5.5 formulated and prepared as described by Debrabant et. al. (International Journal for Parasitology 2004, Volume 34, page 205-217). To ensure log growth phase, axenic amastigotes were sub-cultured at appropriate dilutions every 2-3 days.
Cultures of axenic amastigotes growing in the log phase were passed through a 22 gauge blunt needle to break up the clumps, diluted 1:10 in RPMI-1640/MES medium and counted using hemocytometer to determine parasite concentration. Amastigotes were diluted to 2×10^5/mL in RPMI-1640/MES medium to generate a 2-fold working concentration for assay. Compounds to be tested were serially diluted in DMSO and 0.5 μL added to 50 μL HMI-9 in triplicate 96-well plates using a Biomek NX liquid handler. Parasites from the diluted stock were added to each well (50 μL) using a Multidrop 384 dispenser to give a final concentration of 1.0×10^5/ml parasites in 0.5% for DMSO. Amastigotes were incubated with compounds for 72 hrs at 37° C. with 5% CO2. Resazurin (10 μL of 12.5 mg/ml stock) from Sigma-Aldrich was added to each well and plates were incubated for an additional 2-3 hrs. Assay plates were read using an EnVision plate reader at an excitation wavelength of 544 nm and emission of 590 nm. Triplicate data points were averaged to generate sigmoidal dose response curve and determine IC50 values using XLfit curve fitting software from IDBS (Guildford, UK).

[2] = Kinetic solubility by nephelometric (light scattering) method; format: physicochemical; details: phosphate buffered saline, aqueous buffer, kinetic from dmso stock, PBS pH 7.4
Method: The kinetic solubilities of compounds were estimated using a nephelometric (light scattering) method. Briefly, compounds were serially diluted in DMSO, followed by dilution in PBS pH 7.4. After incubation, the amount of light scattered by a compound at each concentration was measured. […] At concentrations above the solubility limit, the compound precipitates and the precipitant in the well scatters the light, generating a signal. Higher levels of precipitant in a well scatter more light and produce a stronger signal.
A stock solution of compound (25 mM in DMSO) was prepared, and was serially diluted in DMSO in two-fold increments in a row of a 96 well plate to a lowest concentration of 24 μM. A duplicate plate was prepared by transfer of half of the volume of each well to a new plate. Each well containing DMSO solution of the test compound was then diluted further (1:100) with phosphate buffered saline (pH 7.4) to provide aqueous solutions of compound at the following final concentrations: 250, 125, 62.5, 31.3, 15.6, 7.8, 3.9, 2.0, 1.0, 0.5 and 0.2 μM. All liquid handling stages were performed on a Beckman Coulter Biomek NX Laboratory Automation Workstation. Each compound was diluted and tested in duplicate, providing four separate wells at each test concentration.
The test solutions of compound were incubated at room temperature for 90 minutes and then analyzed using a Thermoskan Ascent nephelometric plate reader. The nephelometer protocol included two steps: first, the plate was shaken for 60 seconds at 1200 rpm, then each well of the plate was read in succession with an 800 ms settling delay between measurements. The total measurement time for a single plate was less than 4 minutes.
The four values (in nephelometric units) obtained for each compound at each concentration were averaged and plotted on a log scale versus concentration.

[3] = test system: bloodstream-form trypanosome T. brucei brucei 427 strain; assay: Trypanosoma brucei brucei high-throughput in vitro drug sensitivity assay (resazurin); format: cell-based; details: for Selectivity Index (L929 IC50 / T. b. brucei IC50): T. b. brucei vs L929; for IC50: Trypanosoma brucei
[4] = L929 cytotoxicity evaluation (resazurin); format: cell-based; details: mouse, L929 mouse fibroblast cells; 72 hrs incubation; read-out: Cytotox L-929 IC50
Outline: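 Mouse L929 fibroblasts (1×10^4/mL seeding, attached overnight) were treated 72 h at 37 °C, 5% CO2 with serially diluted compounds in DMSO in D-MEM/10% FBS. Viability read by resazurin fluorescence after 3–4 h (ex 544/em 590 nm); IC50 from sigmoidal fits of single data points.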

[5] = Pharmacokinetic studies in mice (plasma, brain); format: in vivo; details: for CL/F / half-life / Cmax / AUC(0-inf) / AUC(0-t): male, CD-1, mouse, 8 mg/kg, oral; for CL/F / half-life: mice (Table 3a); for CL/F: read-out: Oral Clearance Cl/F (converted); for half-life: read-out: t½ (converted); for Cmax / AUC(0-inf) / AUC(0-t): mice, normalized to 25 mg/kg (Table 3a); for AUC(0-inf): read-out: Exposure/trapezoid AUC0-inf; for AUC(0-t): read-out: Exposure/trapezoid AUC0-last; for Fold improvement 69 vs E14: AUC0-inf / Fold improvement 69 vs E14: AUC0-last / Fold improvement 69 vs E14: Cmax / Fold improvement 69 vs E14: Oral Clearance Cl/F / Fold improvement 69 vs E14: t½: mouse, in vivo, po
Method: Male CD-1 mice weighing approximately 25 g received the test article (E19 or 82 or E14 or 69) by either intravenous (IV), oral gavage (OG) or intra-peritoneal (IP) routes. Animals in IV group (6-10 animals, 1-2 per time point) received a single bolus injection of approximately 2 mg/kg of the test article. Animals receiving […], or as 4 repeat doses ([…], 1-2 per time point).
All doses were administered as clear colorless solutions in either: 50% (v/v) PEG400:20% (v/v) ethanol:30% (v/v) carboxymethylcellulose (0.5% w/v in sterile water for injection, WFI), or as in situ sodium salts in 5% (m/v) dextrose:2% (v/v) ethanol in DWI. All dose solutions were delivered at 4 mL/kg. Animals were fasted for at least 4 hours before dosing, and for 2 hours after dosing.
Blood samples and brain tissue were sampled from 1 or 2 animals/timepoint/group immediately before dosing and approximately 0.17, 0.5, 1, 2, 3, 4, 6, 8, 12, 18 and 24 hr after dosing for full pharmacokinetic and tissue analysis, or at 0.5, 2 and 4 hours post dosing to assess early-phase CNS disposition.
Bioanalysis for test article in whole blood, plasma or brain tissue was performed by HPLC with tandem mass spectrometry (LC-MSMS). Whole blood and plasma samples were treated with 3 volumes of either acetonitrile or methanol to precipitate plasma proteins. Treated samples were centrifuged and supernatants removed for analysis. Brain tissues were weighed and homogenized mechanically in the presence of 1 volume of phosphate-buffered saline (PBS). The resulting tissue suspensions were then diluted with a further volume of PBS, and then treated in the same manner as whole blood or plasma.
Extracted samples were assayed for test article by means of LC-MSMS employing reversed-phase chromatography coupled to a triple quadrupole mass spectrometer employing electrospray ionization in the positive ion mode. The analytical column was a Phenomenex Luna 3μ C8 50×2 mm, with an online sample purification step performed on a Phenomenex Synergi 4μ Polar RP 50×2 mm column.
Test articles were eluted using a binary mobile phase gradient comprising 5 mM Ammonium Acetate: 0.1% formic acid in either MeOH or H2O.
Non-compartmental analysis of plasma test article concentration versus time was performed in Microsoft Excel to generate pharmacokinetic parameters including: area under the curve (AUC), clearance (as Cl or Cl/F), volume of distribution (Vdss), half-life (t½), and bioavailability (F).

[6] = read-out: L. donovani axenic amastigotes IC50
[7] = read-out: L. donovani axenic amastigotes IC50 (ug/mL)
[8] = 72 hrs incubation, read-out: T. b. brucei IC50
[9] = 72 hrs incubation, read-out: T.b. brucei IC50
[10] = 72 h, read-out: T. b. brucei IC50 (nM)
[11] = 72 h, read-out: T.b. brucei IC50 (ug/mL)

- IC50 [1, 6]: 0.524 µM
- IC50 [1, 7]: 0.185 µg/mL
- solubility at 90 min [2]: 50 µM (≈ 17.7 µg/mL)
- IC50 [3, 8]: 258 nM
- IC50 [3, 9]: 0.091 µg/mL
SMILES: CC1OB(O)c2cc(NC(=O)c3ccc(F)cc3C(F)(F)F)ccc21 (stereo not drawn) [compound 1]
- Selectivity Index (Ld/L929) [1]: 7
- Selectivity Index (L929 IC50 / T. b. brucei IC50) [3]: 13
- IC50 at 72 h [4]: 1.21 mg/L (≈ 3.43 µM)

SMILES: CC1OB(O)c2cc(NC(=O)c3ccccc3C(F)(F)F)ccc21 (stereo not drawn) [compound 2, N-(1-Hydroxy-3-methyl-1,3-dihydro-benzo[c][1,2]oxaborol-6-yl)-2-trifluoromethyl-benzamide]
- Selectivity Index (Ld/L929) [1]: 2
- IC50 [1, 6]: 0.83 µM
- IC50 [1, 7]: 0.278 µg/mL
- solubility at 90 min [2]: 3 µM (≈ 1.01 µg/mL)
- Selectivity Index (L929 IC50 / T. b. brucei IC50) [3]: 7
- IC50 [3, 8]: 233 nM
- IC50 [3, 9]: 0.078 µg/mL
- IC50 at 72 h [4]: 0.53 mg/L (≈ 1.58 µM)

SMILES: CC1OB(O)c2cc(NC(=O)c3ccc(F)cc3)ccc21 (stereo not drawn) [compound 3, 4-Fluoro-N-(1-hydroxy-3-methyl-1,3-dihydro-benzo[c][1,2]oxaborol-6-yl)-benzamide]
- Selectivity Index (Ld/L929) [1]: >10
- IC50 [1, 6]: 0.344 µM
- IC50 [1, 7]: 0.098 µg/mL
- solubility at 90 min [2]: 100 µM (≈ 28.5 µg/mL)
- Selectivity Index (L929 IC50 / T. b. brucei IC50) [3]: >200
- IC50 [3, 8]: 175 nM
- IC50 [3, 9]: 0.05 µg/mL
- IC50 at 72 h [4]: > 10 mg/L

SMILES: CC1(C)OB(O)c2cc(NC(=O)c3ccc(F)cc3Cl)ccc21 [compound 69, 2-Chloro-4-fluoro-N-(1-hydroxy-3,3-dimethyl-1,3-dihydro-benzo[c][1,2]oxaborol-6-yl)-benzamide]
- CL/F ([5]; brain): 1.2 L/h/kg
- half-life ([5]; brain): 1.4 h
- Cmax ([5]; brain): 3.25 µg/mL
- AUC(0-inf) ([5]; brain): 21.3 µg·h/mL
- AUC(0-t) ([5]; brain): 20.8 µg·h/mL
- CL/F ([5]; plasma): 0.439 L/h/kg
- half-life ([5]; plasma): 3.7 h
- Cmax ([5]; plasma): 7.67 µg/mL
- AUC(0-inf) ([5]; plasma): 58 µg·h/mL
- AUC(0-t) ([5]; plasma): 56.9 µg·h/mL
- Fold improvement 69 vs E14: AUC0-inf ([5]; in brain): 6.8 fold
- Fold improvement 69 vs E14: AUC0-last ([5]; in brain): 6.7 fold
- Fold improvement 69 vs E14: Cmax ([5]; in brain): 1.3 fold
- Fold improvement 69 vs E14: Oral Clearance Cl/F ([5]; in brain): 6.7 fold
- Fold improvement 69 vs E14: t½ ([5]; in brain): 0.9 fold
- Fold improvement 69 vs E14: AUC0-inf ([5]; in plasma): 3.8 fold
- Fold improvement 69 vs E14: AUC0-last ([5]; in plasma): 4.0 fold
- Fold improvement 69 vs E14: Cmax ([5]; in plasma): 2.1 fold
- Fold improvement 69 vs E14: Oral Clearance Cl/F ([5]; in plasma): 3.9 fold
- Fold improvement 69 vs E14: t½ ([5]; in plasma): 1.2 fold
- solubility at 90 min [2]: 100 µM (≈ 33.4 µg/mL)
- Selectivity Index (L929 IC50 / T. b. brucei IC50) [3]: >35
- IC50 [3, 10]: 845 nM
- IC50 [3, 11]: 0.282 µg/mL
- IC50 at 72 h [4]: > 10 mg/L

SMILES: CC(C)c1ccc(C(=O)Nc2ccc3c(c2)B(O)OC3(C)C)c(Cl)c1 [compound 101, 2-Chloro-N-(1-hydroxy-3,3-dimethyl-1,3-dihydro-benzo[c][1,2]oxaborol-6-yl)-4-isopropyl-benzamide]
- solubility at 90 min [2]: 25 µM (≈ 8.94 µg/mL)
- IC50 [3, 11]: 0.05 µg/mL
- IC50 at 72 h [4]: 8.43 mg/L (≈ 23.6 µM)

- solubility at 90 min [2]: 4.3 µM (≈ 1.49 µg/mL)
- IC50 [3, 9]: 0.566 µg/mL
SMILES: Cc1ccc(F)c(C(=O)Nc2ccc3c(c2)B(O)OC3(C)C)c1Cl [compound 107, 2-Chloro-6-fluoro-N-(1-hydroxy-3,3-dimethyl-1,3-dihydro-benzo[c][1,2]oxaborol-6-yl)-3-methyl-benzamide]
- IC50 at 72 h [4]: > 10 mg/L

- solubility at 90 min [2]: 50 µM (≈ 16.6 µg/mL)
- IC50 [3, 9]: 0.278 µg/mL
SMILES: CC1(C)OB(O)c2cc(NC(=O)c3ccc4ccccc4c3)ccc21 [compound 112, Naphthalene-2-carboxylic acid (1-hydroxy-3,3-dimethyl-1,3-dihydrobenzo[c][1,2]oxaborol-6-yl)-amide]
- IC50 at 72 h [4]: > 10 mg/L

- solubility at 90 min [2]: 100 µM (≈ 28.2 µg/mL)
- IC50 [3, 9]: > 5 µg/mL
SMILES: CC1(C)OB(O)c2cc(NC(=O)c3ccccn3)ccc21 [compound 114, Pyridine-2-carboxylic acid (1-hydroxy-3,3-dimethyl-1,3-dihydro-benzo[c][1,2]oxaborol-6-yl)-amide]
- IC50 at 72 h [4]: > 10 mg/L

SMILES: O=C(Nc1ccc2c(c1)B(O)OC21CCC1)c1ccc(F)cc1C(F)(F)F [compound 134]
- solubility at 90 min [2]: 100 µM (≈ 37.9 µg/mL)
- Selectivity Index (L929 IC50 / T. b. brucei IC50) [3]: >30
- IC50 [3, 10]: 892 nM
- IC50 [3, 11]: 0.338 µg/mL
- IC50 at 72 h [4]: > 10 mg/L

SMILES: O=C(Nc1ccc2c(c1)B(O)OC21CCC1)c1ccc(F)cc1Cl [compound 135]
- solubility at 90 min [2]: 25 µM (≈ 8.64 µg/mL)
- Selectivity Index (L929 IC50 / T. b. brucei IC50) [3]: >58
- IC50 [3, 8]: 498 nM
- IC50 [3, 9]: 0.172 µg/mL
- IC50 at 72 h [4]: > 10 mg/L

SMILES: O=C(Nc1ccc2c(c1)B(O)OC21CCCC1)c1ccc(F)cc1C(F)(F)F [compound 136]
- solubility at 90 min [2]: 25 µM (≈ 9.83 µg/mL)
- IC50 [3, 8]: > 12700 nM
- IC50 [3, 9]: > 5 µg/mL
- IC50 at 72 h [4]: > 10 mg/L

— patent publication US20110190235A1, “BORON-CONTAINING SMALL MOLECULES AS ANTIPROTOZOAL AGENTS” (Anacor Pharmaceuticals, Inc., priority 2009, published 2011)
